Laboratory results from US20110166121A1 (LG LIFE SCIENCES LTD., priority 2008, published 2011).
“And” between values parts separate entries of the source, which are not always exact repeats. Equal entries are not always repeated.

How the values were obtained:
Human P2Y12 receptor = target: T1, Human P2Y12 receptor (Homo sapiens, UniProt Q9H244); assay: Human P2Y12 receptor cell membrane binding assay with [3H] 2-Mes-ADP; conditions: 1 nM [3H] 2-Mes-ADP, membranes of HEK cells expressing P2Y12 receptor; read-out: Binding activity (IC50)
T1 construct: expressed in transfected cells; host or cells: HEK cells
How it was run: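 Membranes from HEK cells expressing human P2Y12 were incubated with compound and 1 nM [3H]2-MeS-ADP for 1 h at room temperature. Bound radioactivity was collected by GF/B filtration.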

[1] = tested on: Human platelet aggregation caused by ADP; assay: Inhibition of ADP-induced platelet aggregation (Mimic-human PRP); type: cell-based; conditions: 20 μM ADP, human platelet concentrate diluted with PPP, absorption at 595 nm
How it was run: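 Human PRP diluted with PPP to 3–4×10^8 platelets/mL was preincubated 20 min at room temperature with compound (0.01–30 μM, DMSO), then stimulated with 20 μM ADP. Aggregation read as A595 increase at 3 min versus 0 and 20 μM ADP controls; Ki from sigmoidal non-linear regression.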

T1 sequence (Q9H244 whole entry): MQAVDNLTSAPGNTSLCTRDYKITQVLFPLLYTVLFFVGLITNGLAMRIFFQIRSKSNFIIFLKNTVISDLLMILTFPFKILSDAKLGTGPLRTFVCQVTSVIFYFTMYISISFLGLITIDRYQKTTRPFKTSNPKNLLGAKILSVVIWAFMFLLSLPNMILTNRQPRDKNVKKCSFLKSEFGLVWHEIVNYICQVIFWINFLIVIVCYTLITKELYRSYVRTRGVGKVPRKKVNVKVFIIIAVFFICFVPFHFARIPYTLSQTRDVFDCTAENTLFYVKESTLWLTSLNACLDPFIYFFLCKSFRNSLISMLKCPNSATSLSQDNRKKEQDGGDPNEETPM

| Compound | IC50 (Human P2Y12 receptor) | Ki [1] |
| --- | --- | --- |
| CCCc1cc2c(N3CCn4c(nnc4C(F)(F)F)C3)nc(N3CCN(CCO)CC3)nc2s1 [Example 1-5, 2-{4-[6-Propyl-4-(3-trifluoromethyl-5,6-dihydro-8H-[1,2,4]triazolo[4,3-a]pyrazin-7-yl)-thieno[2,3-d]pyrimidin-2-yl]-piperazin-1-yl}-ethanol] | 96 nM | 160 nM and 210 nM |
| CCCc1cc2c(N3CCn4c(nnc4C(F)(F)F)C3)nc(N3CCN(C(=O)OCC)CC3)nc2s1 [Example 1-7, 4-[6-Propyl-4-(3-trifluoromethyl-5,6-dihydro-8H-[1,2,4]triazolo[4,3-a]pyrazin-7-yl)-thieno[2,3-d]pyrimidin-2-yl]-piperazine-1-carboxylic acid ethyl ester] | 220 nM | 770 nM |
| CCCc1cc2c(N3CCn4c(nnc4C(F)(F)F)C3)nc(N3CCN(S(=O)(=O)CC)CC3)nc2s1 [Example 1-8, 7-[2-(4-Ethanesulfonyl-piperazin-1-yl)-6-propyl-thieno[2,3-d]pyrimidin-4-yl]-3-trifluoromethyl-5,6,7,8-tetrahydro-[1,2,4]triazolo[4,3-a]pyrazine] | 56 nM | 300 nM |
| CCCc1cc2c(N3CCn4c(nnc4C(F)(F)F)C3)nc(N3CCN(C(=O)CO)CC3)nc2s1 [Example 1-9, 2-Hydroxy-1-{4-[6-propyl-4-(3-trifluoromethyl-5,6-dihydro-8H-[1,2,4]triazolo[4,3-a]pyrazin-7-yl)-thieno[2,3-d]pyrimidin-2-yl]-piperazin-1-yl}-ethanone] | 70 nM | 500 nM |
| CCCc1cc2c(N3CCn4c(nnc4C(F)(F)F)C3)nc(NCCO)nc2s1 [Example 1-10, 2-[6-Propyl-4-(3-trifluoromethyl-5,6-dihydro-8H-[1,2,4]triazolo[4,3-a]pyrazin-7-yl)-thieno[2,3-d]pyrimidin-2-ylamino]-ethanol] | 110 nM | 178 nM |
| CCCc1cc2c(N3CCn4c(nnc4C(F)(F)F)C3)nc(NCC3CCN(Cc4ccccc4)C3)nc2s1 (stereo not shown) [Example 1-11, (1-Benzyl-pyrrolidin-3-ylmethyl)-[6-propyl-4-(3-trifluoromethyl-5,6-dihydro-8H-[1,2,4]triazolo[4,3-a]pyrazin-7-yl)-thieno[2,3-d]pyrimidin-2-yl]-amine] | 260 nM | 1380 nM |
| CCCc1cc2c(N3CCn4c(nnc4C(F)(F)F)C3)nc(N3CCC(CN)C3)nc2s1 (stereo not shown) [Example 1-12, C-{1-[6-Propyl-4-(3-trifluoromethyl-5,6-dihydro-8H-[1,2,4]triazolo[4,3-a]pyrazin-7-yl)-thieno[2,3-d]pyrimidin-2-yl]-pyrrolidin-3-yl}-methylamine] | 84 nM | 226 nM |
| CCCc1cc2c(N3CCn4c(nnc4C(F)(F)F)C3)nc(N3CC[C@@H](N)C3)nc2s1 [Example 1-13, (R)-1-[6-Propyl-4-(3-trifluoromethyl-5,6-dihydro-8H-[1,2,4]triazolo[4,3-a]pyrazin-7-yl)-thieno[2,3-d]pyrimidin-2-yl]-pyrrolidin-3-ylamine] | 83 nM | 90 nM |
| CCCc1cc2c(N3CCn4c(nnc4C(F)(F)F)C3)nc(N3CC[C@H](N)C3)nc2s1 [Example 1-14, (S)-1-[6-Propyl-4-(3-trifluoromethyl-5,6-dihydro-8H-[1,2,4]triazolo[4,3-a]pyrazin-7-yl)-thieno[2,3-d]pyrimidin-2-yl]-pyrrolidin-3-ylamine] | 60 nM | 34 nM |
| CCCc1cc2c(N3CCn4c(nnc4C(F)(F)F)C3)nc(N3CCOCC3)nc2s1 [Example 1-15, 7-(2-Morpholin-4-yl-6-propyl-thieno[2,3-d]pyrimidin-4-yl)-3-trifluoromethyl-5,6,7,8-tetrahydro-[1,2,4]triazolo[4,3-a]pyrazine] | 62 nM | 95 nM |
| CCCc1cc2c(N3CCn4c(nnc4C(F)(F)F)C3)nc(N3CC[C@H](O)C3)nc2s1 [Example 1-16, (S)-1-[6-Propyl-4-(3-trifluoromethyl-5,6-dihydro-8H-[1,2,4]triazolo[4,3-a]pyrazin-7-yl)-thieno[2,3-d]pyrimidin-2-yl]-pyrrolidin-3-ol] | 36 nM | 45 nM |
| CCCc1cc2c(N3CCn4c(nnc4C(F)(F)F)C3)nc(N3CC[C@@H](O)C3)nc2s1 [Example 1-17, (R)-1-[6-Propyl-4-(3-trifluoromethyl-5,6-dihydro-8H-[1,2,4]triazolo[4,3-a]pyrazin-7-yl)-thieno[2,3-d]pyrimidin-2-yl]-pyrrolidin-3-ol] | 41 nM | 80 nM |
| CCCc1cc2c(N3CCn4c(nnc4C(F)(F)F)C3)nc(N3CCC(=O)C3)nc2s1 [Example 1-18, 1-[6-Propyl-4-(3-trifluoromethyl-5,6-dihydro-8H-[1,2,4]triazolo[4,3-a]pyrazin-7-yl)-thieno[2,3-d]pyrimidin-2-yl]-pyrrolidin-3-one] | 54 nM | 34 nM |
| CCCc1cc2c(N3CCn4c(nnc4C(F)(F)F)C3)nc(N3CCC(=NO)C3)nc2s1 [Example 1-19, 1-[6-Propyl-4-(3-trifluoromethyl-5,6-dihydro-8H-[1,2,4]triazolo[4,3-a]pyrazin-7-yl)-thieno[2,3-d]pyrimidin-2-yl]-pyrrolidin-3-one oxime] | 55 nM | 56 nM |
| CCCc1cc2c(N3CCn4c(nnc4C(F)(F)F)C3)nc(N3CCC(=NOC)C3)nc2s1 [Example 1-20, 1-[6-Propyl-4-(3-trifluoromethyl-5,6-dihydro-8H-[1,2,4]triazolo[4,3-a]pyrazin-7-yl)-thieno[2,3-d]pyrimidin-2-yl]-pyrrolidin-3-one O-methyloxime] | 163 nM | 190 nM |
| CCCc1cc2c(N3CCn4c(nnc4C(F)(F)F)C3)nc(N3CCC(=NOCc4ccccc4)C3)nc2s1 [Example 1-21, 1-[6-Propyl-4-(3-trifluoromethyl-5,6-dihydro-8H-[1,2,4]triazolo[4,3-a]pyrazin-7-yl)-thieno[2,3-d]pyrimidin-2-yl]-pyrrolidin-3-one O-benzyloxime] | 452 nM | 220 nM |
| CCCc1cc2c(N3CCn4c(nnc4C(F)(F)F)C3)nc(N3CC[C@H](OC(C)=O)C3)nc2s1 [Example 1-22, Acetic Acid (S)-1-[6-propyl-4-(3-trifluoromethyl-5,6-dihydro-8H-[1,2,4]triazolo[4,3-a]pyrazin-7-yl)-thieno[2,3-d]pyrimidin-2-yl]-pyrrolidin-3-yl ester] | 65 nM | 130 nM |
| CCCc1cc2c(N3CCn4c(nnc4C(F)(F)F)C3)nc(N3CC[C@@H](OC(C)=O)C3)nc2s1 [Example 1-23, Acetic Acid (R)-1-[6-propyl-4-(3-trifluoromethyl-5,6-dihydro-8H-[1,2,4]triazolo[4,3-a]pyrazin-7-yl)-thieno[2,3-d]pyrimidin-2-yl]-pyrrolidin-3-yl ester] | 90 nM | 94 nM |
| CCCc1cc2c(N3CCn4c(nnc4C(F)(F)F)C3)nc(N3CCC(OC)C3)nc2s1 (stereo not shown) [Example 1-24, 7-[2-(3-Methoxy-pyrrolidin-1-yl)-6-propyl-thieno[2,3-d]pyrimidin-4-yl]-3-trifluoromethyl-5,6,7,8-tetrahydro-[1,2,4]triazolo[4,3-a]pyrazine] | 54 nM | 88 nM |
| CCCc1cc2c(N3CCn4c(nnc4C(F)(F)F)C3)nc(N3CCN(C)C(=O)C3)nc2s1 [Example 1-25, 1-Methyl-4-[6-propyl-4-(3-trifluoromethyl-5,6-dihydro-8H-[1,2,4]triazolo[4,3-a]pyrazin-7-yl)-thieno[2,3-d]pyrimidin-2-yl]-piperazin-2-one] | 32 nM | 100 nM |
| CCCc1cc2c(N3CCn4c(nnc4C(F)(F)F)C3)nc(N3CCC(O)CC3)nc2s1 [Example 1-26, 1-[6-Propyl-4-(3-trifluoromethyl-5,6-dihydro-8H-[1,2,4]triazolo[4,3-a]pyrazin-7-yl)-thieno[2,3-d]pyrimidin-2-yl]-piperidin-4-ol] | 60 nM | 1200 nM |
| CCCc1cc2c(N3CCn4c(nnc4C(F)(F)F)C3)nc(N3CCCC(O)C3)nc2s1 (stereo not shown) [Example 1-27, 1-[6-Propyl-4-(3-trifluoromethyl-5,6-dihydro-8H-[1,2,4]triazolo[4,3-a]pyrazin-7-yl)-thieno[2,3-d]pyrimidin-2-yl]-piperidin-3-ol] | 56 nM | 72 nM |
| CCCc1cc2c(N3CCn4c(nnc4C(F)(F)F)C3)nc(N3CCCCC3CO)nc2s1 (stereo not shown) [Example 1-28, {1-[6-Propyl-4-(3-trifluoromethyl-5,6-dihydro-8H-[1,2,4]triazolo[4,3-a]pyrazin-7-yl)-thieno[2,3-d]pyrimidin-2-yl]-piperidin-2-yl}-methanol] | 40 nM | 176 nM |
| CCCc1cc2c(N3CCn4c(nnc4C(F)(F)F)C3)nc(N3CCCC(CO)C3)nc2s1 (stereo not shown) [Example 1-29, {1-[6-Propyl-4-(3-trifluoromethyl-5,6-dihydro-8H-[1,2,4]triazolo[4,3-a]pyrazin-7-yl)-thieno[2,3-d]pyrimidin-2-yl]-piperidin-3-yl}-methanol] | 50 nM | 60 nM |
| CCCc1cc2c(N3CCn4c(nnc4C(F)(F)F)C3)nc(N3CCCC3CO)nc2s1 (stereo not shown) [Example 1-30, {1-[6-Propyl-4-(3-trifluoromethyl-5,6-dihydro-8H-[1,2,4]triazolo[4,3-a]pyrazin-7-yl)-thieno[2,3-d]pyrimidin-2-yl]-pyrrolidin-2-yl}-methanol] | 66 nM | 90 nM |
| CCCc1cc2c(N3CCn4c(nnc4C(F)(F)F)C3)nc(NC3CCCC3)nc2s1 [Example 1-31, Cyclopentyl-[6-propyl-4-(3-trifluoromethyl-5,6-dihydro-8H-[1,2,4]triazolo[4,3-a]pyrazin-7-yl)-thieno[2,3-d]pyrimidin-2-yl]-amine] | 110 nM | 7600 nM |
